For test [1], the target named is Multidrug resistance-associated protein 1 (Homo sapiens, UniProt P33527). The test is described as follows: Inhibition of multidrug resistance associated protein type 1 (MRP1) assayed by an accumulation assay in COR.L23/R cells. Format: functional, cell-based.
The target of test [2] is ATP-dependent translocase ABCB1 (Mus musculus, UniProt P06795). The test is described as follows: Inhibitory activity against P-glycoprotein (Pgp) using accumulation assay for Pgp expressing EMT6/AR1.0 cells. Format: functional.
Test [3] in a line: Compound was evaluated for its inhibitory activity against multidrug resistance associated protein type 1 (MRP) using potentiation assay. Format: functional, Homo sapiens.
Another test concerns EMT6. Put plainly: Compound was evaluated for its inhibitory activity against P-glycoprotein (Pgp) using potentiation assay. Format: functional, cell-based. Particulars: Mus musculus.

Molecules are shown by their SMILES. Some results are limits rather than exact numbers.

Sequence of Multidrug resistance-associated protein 1 (P33527 whole entry): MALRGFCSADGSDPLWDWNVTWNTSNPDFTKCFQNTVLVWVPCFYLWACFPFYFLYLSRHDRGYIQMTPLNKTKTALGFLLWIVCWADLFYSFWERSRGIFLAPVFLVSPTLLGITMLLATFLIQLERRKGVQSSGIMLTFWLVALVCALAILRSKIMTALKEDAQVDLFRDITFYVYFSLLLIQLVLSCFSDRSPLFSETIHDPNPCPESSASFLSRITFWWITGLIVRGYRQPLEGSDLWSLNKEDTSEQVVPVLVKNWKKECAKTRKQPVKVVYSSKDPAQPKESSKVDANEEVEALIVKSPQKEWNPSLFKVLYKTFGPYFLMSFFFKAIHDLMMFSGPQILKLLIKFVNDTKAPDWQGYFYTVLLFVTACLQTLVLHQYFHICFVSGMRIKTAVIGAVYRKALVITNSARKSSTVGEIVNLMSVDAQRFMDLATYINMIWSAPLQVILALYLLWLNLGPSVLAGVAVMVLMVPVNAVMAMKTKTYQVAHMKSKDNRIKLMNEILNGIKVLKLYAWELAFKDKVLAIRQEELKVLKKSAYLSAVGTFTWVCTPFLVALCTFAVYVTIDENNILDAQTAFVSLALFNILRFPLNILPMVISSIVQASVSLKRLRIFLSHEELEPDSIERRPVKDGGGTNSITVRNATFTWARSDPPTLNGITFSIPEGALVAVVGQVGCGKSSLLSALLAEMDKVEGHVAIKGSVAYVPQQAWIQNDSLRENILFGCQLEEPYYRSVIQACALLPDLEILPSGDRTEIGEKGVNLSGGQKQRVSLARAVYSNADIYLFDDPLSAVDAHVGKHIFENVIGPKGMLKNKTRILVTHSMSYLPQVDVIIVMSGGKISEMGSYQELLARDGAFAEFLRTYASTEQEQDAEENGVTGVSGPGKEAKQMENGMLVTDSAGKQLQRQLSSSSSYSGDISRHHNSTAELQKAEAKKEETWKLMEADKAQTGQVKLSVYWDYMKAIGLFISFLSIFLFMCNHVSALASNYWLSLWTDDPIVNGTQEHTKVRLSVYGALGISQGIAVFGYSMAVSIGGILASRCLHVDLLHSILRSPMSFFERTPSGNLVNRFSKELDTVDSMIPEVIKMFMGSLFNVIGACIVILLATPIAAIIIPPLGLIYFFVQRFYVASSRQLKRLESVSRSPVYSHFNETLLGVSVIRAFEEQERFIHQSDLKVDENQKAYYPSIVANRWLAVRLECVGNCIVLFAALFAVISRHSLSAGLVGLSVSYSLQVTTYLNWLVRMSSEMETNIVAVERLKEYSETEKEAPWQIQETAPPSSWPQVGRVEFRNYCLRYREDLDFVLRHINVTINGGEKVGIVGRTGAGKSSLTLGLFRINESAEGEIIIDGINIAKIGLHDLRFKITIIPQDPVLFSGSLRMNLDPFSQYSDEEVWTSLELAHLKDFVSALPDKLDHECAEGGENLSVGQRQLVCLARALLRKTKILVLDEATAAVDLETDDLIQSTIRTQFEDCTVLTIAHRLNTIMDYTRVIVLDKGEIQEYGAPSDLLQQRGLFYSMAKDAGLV
Sequence of ATP-dependent translocase ABCB1 (P06795 whole entry): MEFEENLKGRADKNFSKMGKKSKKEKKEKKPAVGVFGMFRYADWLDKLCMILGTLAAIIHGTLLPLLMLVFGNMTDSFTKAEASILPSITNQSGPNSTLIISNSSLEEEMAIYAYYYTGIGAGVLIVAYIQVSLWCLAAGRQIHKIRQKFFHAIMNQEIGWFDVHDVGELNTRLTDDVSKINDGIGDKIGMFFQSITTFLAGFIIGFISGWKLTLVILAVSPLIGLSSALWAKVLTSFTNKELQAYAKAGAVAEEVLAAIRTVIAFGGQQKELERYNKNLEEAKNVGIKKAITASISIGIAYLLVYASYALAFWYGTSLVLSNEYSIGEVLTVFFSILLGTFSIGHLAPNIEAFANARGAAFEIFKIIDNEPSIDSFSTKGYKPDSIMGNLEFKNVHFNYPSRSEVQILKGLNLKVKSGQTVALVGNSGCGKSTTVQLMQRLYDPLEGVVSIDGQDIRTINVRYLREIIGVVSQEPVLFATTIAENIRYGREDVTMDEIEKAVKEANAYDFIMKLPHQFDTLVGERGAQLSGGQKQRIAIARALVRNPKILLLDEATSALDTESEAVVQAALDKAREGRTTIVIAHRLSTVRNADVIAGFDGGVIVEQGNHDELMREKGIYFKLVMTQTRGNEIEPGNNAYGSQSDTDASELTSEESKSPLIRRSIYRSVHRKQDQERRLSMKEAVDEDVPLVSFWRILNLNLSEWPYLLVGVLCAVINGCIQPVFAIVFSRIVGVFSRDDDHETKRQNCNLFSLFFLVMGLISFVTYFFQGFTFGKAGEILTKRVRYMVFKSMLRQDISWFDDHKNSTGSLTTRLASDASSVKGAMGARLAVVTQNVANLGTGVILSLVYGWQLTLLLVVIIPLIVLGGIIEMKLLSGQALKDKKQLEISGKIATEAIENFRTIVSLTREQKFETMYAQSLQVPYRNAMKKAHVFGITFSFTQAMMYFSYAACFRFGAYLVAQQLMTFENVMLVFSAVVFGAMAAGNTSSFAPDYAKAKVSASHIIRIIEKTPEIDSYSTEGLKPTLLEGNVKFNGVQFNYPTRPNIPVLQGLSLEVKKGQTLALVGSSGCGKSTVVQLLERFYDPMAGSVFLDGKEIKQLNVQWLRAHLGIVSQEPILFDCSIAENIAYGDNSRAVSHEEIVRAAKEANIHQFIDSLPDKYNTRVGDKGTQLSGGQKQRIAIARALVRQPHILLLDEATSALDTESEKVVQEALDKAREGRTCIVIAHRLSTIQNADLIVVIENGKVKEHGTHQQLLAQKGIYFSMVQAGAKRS

Regarding `CCCCCCn1c(-c2ccc(N(C)C)cc2)nc2ccccc2c1=O`, the figures for the IC50 in test [1] and in test [2] were above 100000 nM and 40000 nM, respectively.

On to `COc1cc2c(cc1OC)CN(CCn1c(-c3ccc(N(C)C)cc3)nc3c(Cl)cccc3c1=O)CC2`, for which the IC50 came to 2910 nM in test [1] and 1060 nM in test [2].

As to `COc1cc2c(cc1OC)CN(CCn1c(-c3ccc(N(C)C)cc3)nc3ccc(N)cc3c1=O)CC2`, the IC50 in test [1] came to 7600 nM; in test [2], 2000 nM.

Take `CCCc1cccc(-c2nc3ccccc3c(=O)n2CCN2CCc3cc(OC)c(OC)cc3C2)c1`: the IC50 in test [1] was 1000 nM; in test [2], 800 nM.

On to `COc1cc2c(cc1OC)CN(CCn1c(-c3ccc(N(C)C)cc3)nc3c(OC)cccc3c1=O)CC2`, for which the IC50 in test [1] is 15100 nM; in test [2] it was 50 nM.

Consider `CN(C)c1ccc(-c2nc3ccccc3c(=O)n2Cc2ccccc2)cc1`, for which the IC50 in test [1] was above 100000 nM; in test [2], 41000 nM.

On to `COc1cc2c(cc1OC)CN(CCn1c(-c3ccc(-c4ccccc4)cc3)nc3ccccc3c1=O)CC2`, for which the IC50 was found to be 1000 nM in test [1] and 1030 nM in test [2].

Turning to `CN(C)c1ccc(-c2nc3ccccc3c(=O)n2CCc2ccncc2)cc1`, the IC50 came out at 3330 nM in test [1] and 10000 nM in test [2].

Regarding `COc1cc2c(cc1OC)CN(CCn1c(-c3ccc(N(C)C)cc3)nc3cc(N)ccc3c1=O)CC2`, the IC50 in test [1] turned out to be 18600 nM; in test [2], 7200 nM.

Turning to `CN(C)c1ccc(-c2nc3ccccc3c(=O)n2CCN2CCN(c3ncccn3)CC2)cc1`, the values for the IC50 in test [1] and in test [2] were 36000 nM and 390 nM, respectively.

In the case of `COc1cc2c(cc1OC)CN(CCn1c(-c3ccc(N(C)C)cc3)nc3c(C)cccc3c1=O)CC2`, the values for the IC50 in test [1] and in test [2] were 6350 nM and 630 nM, respectively.

As to `COc1cc2c(cc1OC)CN(CCn1c(-c3ccc(N(C)C)cc3)nc3cccc(Cl)c3c1=O)CC2`, the figures for the IC50 in test [1] and in test [2] were 3840 nM and 160 nM, respectively.

As for `COc1cc2c(cc1OC)CN(CCn1c(-c3ccc(C(C)C)cc3)nc3ccccc3c1=O)CC2`, the IC50 in test [1] stood at 500 nM; in test [2], 1000 nM.

Regarding `COc1ccc(CCN(C)CCn2c(-c3ccc(N(C)C)cc3)nc3ccccc3c2=O)cc1OC`, the IC50 was 37000 nM in test [1] and 1900 nM in test [2].

In the case of `COc1cc2c(cc1OC)CN(CCn1c(-c3ccc4c(c3)OCO4)nc3ccccc3c1=O)CC2`, the IC50 in test [1] was 1500 nM; in test [2], 3700 nM.

Turning to `COc1cc2c(cc1OC)CN(CCn1c(-c3ccc(N(C)C)cc3)nc3cc([N+](=O)[O-])ccc3c1=O)CC2`, the results for the IC50 in test [1] and in test [2] were 2020 nM and 1100 nM, respectively.

Regarding `CCN(CC)c1ccc(-c2nc3ccccc3c(=O)n2CCN2CCc3cc(OC)c(OC)cc3C2)cc1`, the IC50 was above 10000 nM in test [1] and 1300 nM in test [2].

Consider `COc1cc2c(cc1OC)CN(CCn1c(-c3ccc(N(C)C)cc3)nc3ccc(Cl)cc3c1=O)CC2`, for which the figures for the IC50 in test [1] and in test [2] were 1560 nM and 1700 nM, respectively.

Regarding `COc1cc2c(cc1OC)CN(CCn1c(-c3ccccc3O)nc3ccccc3c1=O)CC2`, in test [1], the IC50 worked out at 95000 nM.

Consider `CN(C)c1ccc(-c2nc3ccccc3c(=O)n2CCN2CCc3ccccc3C2)cc1`, for which the IC50 in test [1] was 3200 nM; in test [2] it was 5000 nM.

For the compound `CN(C)c1ccc(-c2nc3ccccc3c(=O)n2CC2CCCCC2)cc1`, the half-maximal inhibitory concentration (IC50) is 10000 nM in test [1] and 14000 nM in test [2].

Regarding `COc1cc(C(=O)N2CCN(CCn3c(-c4ccc(N(C)C)cc4)nc4ccccc4c3=O)CC2)cc(OC)c1OC`, the IC50 in test [1] was 7200 nM; in test [2], 4200 nM.

As for `COc1cc2c(cc1OC)CN(CCn1c(-c3ccc(N(C)C)cc3)nc3ccc([N+](=O)[O-])cc3c1=O)CC2`, the IC50 in test [1] was found to be 400 nM; in test [2], 600 nM.

For `COc1cc2c(cc1OC)CN(CCn1c(-c3ccccc3)nc3ccccc3c1=O)CC2`, the IC50 in test [1] stood at 2800 nM; in test [2], 8000 nM.

`CN(C)c1ccc(-c2nc3ccccc3c(=O)n2CCN2CCN(Cc3ccccc3)CC2)cc1`: the values for the IC50 in test [1] and in test [2] were 39000 nM and 2100 nM, respectively.

On to `COc1cc2c(cc1OC)CN(CCn1c(-c3ccc(N(C)C)cc3)nc3ccccc3c1=O)CC2`, for which the EC50 in test [3] came to 3010 nM; with EMT6, 3300 nM. The values for the IC50 in test [1] and in test [2] were 1050 nM and 1070 nM, respectively.

`COc1cc2c(cc1OC)CN(CCn1c(-c3ccc(N(C)C)cc3)nc3cc(Cl)ccc3c1=O)CC2`: the IC50 in test [1] worked out at 1330 nM; in test [2], 1350 nM.

`COc1cc2c(cc1OC)CN(CCn1c(-c3cccc(N(C)C)c3)nc3ccccc3c1=O)CC2`: the IC50 in test [1] stood at 4500 nM; in test [2] it was 1600 nM.

As for `COc1cc2c(cc1OC)CN(CCn1c(-c3ccc4ccccc4c3)nc3ccccc3c1=O)CC2`, the IC50 was 900 nM in test [1] and 850 nM in test [2].

Regarding `COc1cc(C(=O)C(=O)N2CCCC[C@H]2C(=O)OC(CCCc2cccnc2)CCCc2cccnc2)cc(OC)c1OC` [BIRICODAR], the IC50 in test [1] amounted to 5180 nM; in test [2], 5000 nM.

For the origin of these results see ChEMBL document CHEMBL1135064, “Studies on quinazolinones as dual inhibitors of Pgp and MRP1 in multidrug resistance” (Bioorg Med Chem Lett, 2002).
